Assay results published in PubChem BioAssay (NCI).
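Protocol summary: plate cells (96-well), add compound at 5 concentrations, incubate 48 h, interpolate endpoints linearly. GI50 marks 50% less growth. TGI marks complete inhibition of growth.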

What was measured:
Assay in all cases: NCI-60 cell line screen, 48 h
SF-295 CNS = tested on: SF-295 CNS
MALME-3M melanoma = tested on: MALME-3M melanoma
COLO 205 colon = tested on: COLO 205 colon
DU-145 prostate = tested on: DU-145 prostate
TK-10 renal = tested on: TK-10 renal
HCT-15 colon = tested on: HCT-15 colon
SK-MEL-5 melanoma = tested on: SK-MEL-5 melanoma
HOP-62 NSCLC = tested on: HOP-62 NSCLC
KM12 colon = tested on: KM12 colon
SNB-19 CNS = tested on: SNB-19 CNS
PC-3 prostate = tested on: PC-3 prostate
MCF7 breast = tested on: MCF7 breast
MOLT-4 leukemia = tested on: MOLT-4 leukemia
786-0 renal = tested on: 786-0 renal
SR leukemia = tested on: SR leukemia
SW-620 colon = tested on: SW-620 colon
HS 578T breast = tested on: HS 578T breast
OVCAR-3 ovarian = tested on: OVCAR-3 ovarian
SF-539 CNS = tested on: SF-539 CNS
NCI-H226 lung = tested on: NCI-H226 lung
UACC-257 melanoma = tested on: UACC-257 melanoma
T-47D breast = tested on: T-47D breast
MDA-MB-231 breast = tested on: MDA-MB-231 breast
BT-549 breast = tested on: BT-549 breast
M14 melanoma = tested on: M14 melanoma
MDA-MB-435 = tested on: MDA-MB-435
HL-60(TB) leukemia = tested on: HL-60(TB) leukemia
UACC-62 melanoma = tested on: UACC-62 melanoma
HCC-2998 colon = tested on: HCC-2998 colon
HCT-116 colon = tested on: HCT-116 colon
RPMI-8226 leukemia = tested on: RPMI-8226 leukemia
SF-268 CNS = tested on: SF-268 CNS
SK-OV-3 ovarian = tested on: SK-OV-3 ovarian
CAKI-1 renal = tested on: CAKI-1 renal
NCI/ADR-RES ovarian = tested on: NCI/ADR-RES ovarian
OVCAR-8 ovarian = tested on: OVCAR-8 ovarian
ACHN renal = tested on: ACHN renal
OVCAR-4 ovarian = tested on: OVCAR-4 ovarian
NCI-H522 lung = tested on: NCI-H522 lung
A549 NSCLC = tested on: A549 NSCLC
A498 renal = tested on: A498 renal
HOP-92 NSCLC = tested on: HOP-92 NSCLC
SN12C renal = tested on: SN12C renal
CCRF-CEM leukemia = tested on: CCRF-CEM leukemia
SNB-75 CNS = tested on: SNB-75 CNS
RXF 393 renal = tested on: RXF 393 renal
SK-MEL-28 melanoma = tested on: SK-MEL-28 melanoma
NCI-H460 lung = tested on: NCI-H460 lung
HT29 colon = tested on: HT29 colon
IGROV1 ovarian = tested on: IGROV1 ovarian
K-562 leukemia = tested on: K-562 leukemia
UO-31 renal = tested on: UO-31 renal
NCI-H23 lung = tested on: NCI-H23 lung
LOX IMVI melanoma = tested on: LOX IMVI melanoma
OVCAR-5 ovarian = tested on: OVCAR-5 ovarian
SK-MEL-2 melanoma = tested on: SK-MEL-2 melanoma
U251 CNS = tested on: U251 CNS

## CN(CCO)C1CCN(c2ccc(Nc3ncc4c5ccnc(F)c5n(C5CCCC5)c4n3)nc2)CC1
SF-295 CNS
  GI50: 2.22 µM
  TGI: 20.2 µM
MALME-3M melanoma
  GI50: 12.7 µM
  TGI: 34.5 µM
COLO 205 colon
  GI50: 0.0817 µM
  TGI: 18.5 µM
DU-145 prostate
  GI50: 1.76 µM
  TGI: 3.18 µM
TK-10 renal
  GI50: 1.59 µM
  TGI: 21.2 µM
HCT-15 colon
  GI50: 3.01 µM
  TGI: 7.79 µM
SK-MEL-5 melanoma
  GI50: 10.9 µM
  TGI: 25.9 µM
HOP-62 NSCLC
  GI50: 4.7 µM
  TGI: 25.4 µM
KM12 colon
  GI50: 0.0514 µM
  TGI: 1.73 µM
SNB-19 CNS
  GI50: 2.47 µM
  TGI: 33.8 µM
PC-3 prostate
  GI50: 8.47 µM
  TGI: 25.8 µM
MCF7 breast
  GI50: 0.106 µM
  TGI: 3.05 µM
MOLT-4 leukemia
  GI50: 0.0513 µM
  TGI: 9.74 µM
786-0 renal
  GI50: 5.12 µM
  TGI: 26.9 µM
SR leukemia
  GI50: 1.23 µM
  TGI: 4.61 µM
SW-620 colon
  GI50: 0.184 µM
  TGI: 2.21 µM
HS 578T breast
  GI50: 6.01 µM
  TGI: 34.3 µM
OVCAR-3 ovarian
  GI50: 14.9 µM
  TGI: 30.4 µM
SF-539 CNS
  GI50: 4.6 µM
  TGI: 10.5 µM
NCI-H226 lung
  GI50: 16.3 µM
  TGI: 55 µM
UACC-257 melanoma
  GI50: 17.6 µM
  TGI: 40 µM
T-47D breast
  GI50: 17.5 µM
  TGI: 69.1 µM
MDA-MB-231 breast
  GI50: 6.01 µM
  TGI: 24.2 µM
BT-549 breast
  GI50: 13.1 µM
  TGI: 31.4 µM
M14 melanoma
  GI50: 11.7 µM
  TGI: 32.8 µM
MDA-MB-435
  GI50: 5.84 µM
  TGI: 20.7 µM
HL-60(TB) leukemia
  GI50: 0.103 µM
  TGI: 8.05 µM
UACC-62 melanoma
  GI50: 16.7 µM
  TGI: 46 µM
HCC-2998 colon
  GI50: 11.1 µM
  TGI: 25.4 µM
HCT-116 colon
  GI50: 1.85 µM
  TGI: 7.36 µM
RPMI-8226 leukemia
  GI50: 0.184 µM
  TGI: 19.8 µM
SF-268 CNS
  GI50: 12.5 µM
  TGI: 30.9 µM
SK-OV-3 ovarian
  GI50: 11.1 µM
  TGI: 26 µM
CAKI-1 renal
  GI50: 4.44 µM
  TGI: 21.3 µM
NCI/ADR-RES ovarian
  GI50: 15.3 µM
  TGI: 36 µM
OVCAR-8 ovarian
  GI50: 14.7 µM
  TGI: 43.4 µM
ACHN renal
  GI50: 1.98 µM
  TGI: 20.6 µM
OVCAR-4 ovarian
  GI50: 11.2 µM
  TGI: 27.7 µM
NCI-H522 lung
  GI50: 17.2 µM
  TGI: 36.2 µM
A549 NSCLC
  GI50: 2.27 µM
  TGI: 7.9 µM
A498 renal
  GI50: 0.366 µM
  TGI: 14.6 µM
HOP-92 NSCLC
  GI50: 11.6 µM
  TGI: 28.8 µM
SN12C renal
  GI50: 12.2 µM
  TGI: 31.5 µM
CCRF-CEM leukemia
  GI50: 0.208 µM
  TGI: 3.59 µM
SNB-75 CNS
  GI50: 5.67 µM
  TGI: 20.7 µM
RXF 393 renal
  GI50: 1.73 µM
  TGI: 16.8 µM
SK-MEL-28 melanoma
  GI50: 12.3 µM
  TGI: 28.9 µM
NCI-H460 lung
  GI50: 0.99 µM
  TGI: 2.44 µM
HT29 colon
  GI50: 1.23 µM
  TGI: 4.45 µM
IGROV1 ovarian
  GI50: 11.7 µM
  TGI: 30.8 µM
K-562 leukemia
  GI50: 1.32 µM
  TGI: 4.08 µM
UO-31 renal
  GI50: 1.86 µM
  TGI: 20.9 µM
NCI-H23 lung
  GI50: 7.76 µM
  TGI: 32.3 µM
LOX IMVI melanoma
  GI50: 1.02 µM
  TGI: 2.24 µM
OVCAR-5 ovarian
  GI50: 0.812 µM
  TGI: 20.7 µM
SK-MEL-2 melanoma
  GI50: 20.4 µM
  TGI: 45.6 µM
U251 CNS
  GI50: 2.74 µM
  TGI: 7.5 µM
